The results in this text go back to ChEMBL document CHEMBL1146619, “The design and synthesis of guanosine compounds with in vitro activity against the colon cancer cell line SW480: non-taxane derived mimics of taxol?” (Bioorg Med Chem Lett, 2003).

SMILES strings stand for the structures.

The assay deals with SW480. Put plainly: In vitro anti-cancer activity against the colon cancer cell line SW480 was determined. Format: functional, cell-based. The note with it: Homo sapiens.
As a reminder, the IC50 is the midpoint of a concentration-inhibition curve. Low readings indicate higher potency, high ones lower potency. `COc1ccc(C(Nc2nc(O)c3ncn(C4OC(COC(=O)[C@@H]5OC(C)(C)N(C(C)=O)[C@H]5c5ccccc5)C5OC(C)(C)OC54)c3n2)(c2ccccc2)c2ccccc2)cc1` (stereo not given in full): the IC50 worked out at 19.9 µM. `CC(=O)N1[C@@H](c2ccccc2)[C@H](C(=O)OCC2OC(n3cnc4c(O)nc(NC(=O)C(C)C)nc43)C3OC(C)(C)OC23)OC1(C)C` (stereo not given in full) came in with an IC50 of 192 µM. This IC50 lies about 9.6-fold higher than the previous one. Then `COc1ccc(C(Nc2nc(O)c3ncn(C4OC(COC(=O)[C@@H]5OC(C)(C)N(C(=O)c6ccccc6)[C@H]5c5ccccc5)C5OC(C)(C)OC54)c3n2)(c2ccccc2)c2ccccc2)cc1` (stereo not given in full), with 152 µM; and `CC(C)C(=O)Nc1nc(O)c2ncn(C3OC(COC(=O)[C@@H]4OC(C)(C)N(C(=O)c5ccccc5)[C@H]4c4ccccc4)C4OC(C)(C)OC43)c2n1` (stereo not given in full), with 222 µM; and `CC(=O)O[C@H]1C(=O)[C@@]2(C)[C@H]([C@H](OC(=O)c3ccccc3)[C@]3(O)C[C@H](OC(=O)[C@H](O)[C@@H](NC(=O)c4ccccc4)c4ccccc4)C(C)=C1C3(C)C)[C@]1(OC(C)=O)CO[C@@H]1C[C@@H]2O` [PACLITAXEL], with 0.312 µM.
